For experiment [1], the target named is NP1 (wild-type nitrophorin 1) (Rhodnius prolixus, UniProt Q26239). The experiment in a line: UV/Vis ligand titration, equilibrium binding constants.
Experiment [2] concerns the target H60C_NP1 (His-60 to Cys-60 mutant of nitrophorin 1) (Rhodnius prolixus, UniProt Q26239, H82C). The experiment in a line: biochemical. It counts as binding.
Experiment [3] deals with H60C_NP1 (His-60 to Cys-60 mutant of nitrophorin 1). The experiment in a line: biochemical. It counts as binding, Rhodnius prolixus. Conditions: H60C_NP1 vs NP1.
The mark [4] stands for this setting: read-out: Dissociation constant (Kd) of ligand complex of NP1, 25°C, PBS buffer (50mM Na-phosphate, 100 mM NaCl, pH 7.4), UV/Vis titration.

Structures are written as SMILES. Read-outs that look alike come from different tables or passages of the source.

From PMC2635096 (Journal of biological inorganic chemistry : JBIC : a …, 2008) come the findings set out here.

Sequence of NP1 (wild-type nitrophorin 1) (Q26239 24-207): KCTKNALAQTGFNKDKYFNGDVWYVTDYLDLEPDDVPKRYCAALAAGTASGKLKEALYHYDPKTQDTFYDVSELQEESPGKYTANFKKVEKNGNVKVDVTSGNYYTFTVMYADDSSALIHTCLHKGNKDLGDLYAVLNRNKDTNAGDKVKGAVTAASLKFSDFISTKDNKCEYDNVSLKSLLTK
Sequence of H60C_NP1 (His-60 to Cys-60 mutant of nitrophorin 1) (Rhodnius prolixus, UniProt Q26239, H82C) (Q26239 24-207 H82C): as the sequence (Q26239 24-207) above, with H59C counted along it

One may read the Kd as the concentration at which binding is half-saturated. As to `Cc1c[nH]cn1` [4-Methylimidazole], the Kd in experiment [1] amounted to 182 nM; in experiment [2], 560000 nM. In experiment [3], the “Increase in dissociation constant for H60C_NP1 relative to NP1” value was “more than three orders of magnitude”.
On to `c1c[nH]cn1` [Imidazole], for which the dissociation constant Kd in experiment [1] (setting [4]) came out at 255 nM; in experiment [1] (read-out: Dissociation constant (Kd) of ligand complex of NP1, 25°C, PBS buffer (50mM Na-phosphate, 100 mM NaCl, pH 7.4), UV/Vis titration, listed as imidazole), 250 nM.
For the molecule `CCCCn1ccnc1` [N-(n-Butyl)imidazole], the Kd in experiment [1] (setting [4]) worked out at 52 nM.
